In ChEMBL document CHEMBL1154233, “Minor furanocoumarins and coumarins in grapefruit peel oil as inhibitors of human cytochrome P450 3A4” (J Nat Prod, 2009):

target: Cytochrome P450 3A4 (Homo sapiens, UniProt P08684); assay: Inhibition of CYP3A4 after 30 mins by fluorescence microplate reader assay; type: ADME; conditions: not given
Sequence (P08684 whole entry): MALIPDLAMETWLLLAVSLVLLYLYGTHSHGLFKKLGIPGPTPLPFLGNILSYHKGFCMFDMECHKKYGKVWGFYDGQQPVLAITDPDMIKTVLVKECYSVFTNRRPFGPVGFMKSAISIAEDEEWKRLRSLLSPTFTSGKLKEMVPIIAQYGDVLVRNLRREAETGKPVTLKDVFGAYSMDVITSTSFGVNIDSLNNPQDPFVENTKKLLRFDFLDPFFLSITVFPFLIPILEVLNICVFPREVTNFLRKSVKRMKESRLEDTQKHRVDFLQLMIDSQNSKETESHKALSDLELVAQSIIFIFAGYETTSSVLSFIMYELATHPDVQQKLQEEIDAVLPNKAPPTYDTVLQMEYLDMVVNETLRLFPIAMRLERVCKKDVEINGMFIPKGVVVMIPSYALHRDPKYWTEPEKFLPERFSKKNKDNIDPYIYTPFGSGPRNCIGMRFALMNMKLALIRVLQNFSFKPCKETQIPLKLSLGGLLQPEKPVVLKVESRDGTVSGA

SMILES	IC50
C/C(=C\COc1ccc2ccc(=O)oc2c1)CC[C@@H](O)C(C)(C)O [R-(+)-MARMIN]	Not Active
CCCCCCCCCC1O[C@H](CC/C(C)=C/COc2ccc3ccc(=O)oc3c2)C(C)(C)O1 (some centres not stated)	Not Active
CC(C)=CCC/C(C)=C/COc1ccc2ccc(=O)oc2c1 [AURAPTENE]	Not Active

same assay, conditions: read-out: IC50

SMILES	IC50 [nM]
CCCCCCCCCC1O[C@H](CC/C(C)=C/COc2c3ccoc3cc3oc(=O)ccc23)C(C)(C)O1 (some centres not stated)	270
CCCCCCCC1O[C@H](CC/C(C)=C/COc2c3ccoc3cc3oc(=O)ccc23)C(C)(C)O1 (some centres not stated)	130
CC(C)=CCC/C(C)=C/COc1c2ccoc2cc2oc(=O)ccc12 [BERGAMOTTIN]	2420
C/C(=C\COc1c2ccoc2cc2oc(=O)ccc12)CC[C@@H](O)C(C)(C)O	1580
